Earlier results on five compounds are cited in US20040014215A1, “Synchronised arabidopsis cell suspensions and uses thereof” (priority 2000, published 2004).

Data set [1] deals with tobacco BY-2 cell line. The conditions noted are these: BY-2 pre-synchronised with aphidicolin, then propyzamide for a few hours and removal; cited from earlier work.
The test system of data set [2] is Arabidopsis cell suspension cultures. The conditions noted are these: low concentration of cycloheximide, release by washing; cited from earlier work.
The test system of data set [3] is cell cycle. To be noted: phase of the cell cycle at which cells are arrested; cited from earlier work.
Data set [4] deals with purified CDK/cyclin complexes. The conditions noted are these: cited from earlier work.
The subject of data set [5] is plant cells derived from a petunia protoplast culture. To be noted: cited from earlier work.

Consider `C#CC(C)(C)NC(=O)c1cc(Cl)cc(Cl)c1` [propyzamide], for which the mitotic index in data set [1] is given as 80-90%.
For `C[C@@H]1C[C@@H]([C@H](O)CC2CC(=O)NC(=O)C2)C(=O)[C@@H](C)C1` [cycloheximide], the peak mitotic index in data set [2] is 9%.
With `NC(=O)NO` [hydroxyurea], in data set [3], the cell cycle arrest entry is reported as “G1/S phase boundary”.
As for `CC[C@H](CO)Nc1nc(NCc2ccccc2)c2ncn(C(C)C)c2n1` [roscovitine], the “histone H1 kinase activity” value in data set [4] is recorded as “inhibit the histone H1 kinase activity”.
Turning to `NC(Cn1ccc(=O)c(O)c1)C(=O)O` (stereo not drawn) [mimosine], the cell cycle block result in data set [5] is “reversible block during G1 and in early/mid S-phase”. Besides, the cell cycle arrest entry in data set [3] is recorded as “early S”.
